Laboratory results taken from patent publication US20180325825A1 (GEMPHIRE THERAPEUTICS INC., priority 2015, published 2018).

Tests used:
[1] = Pharmacokinetics of prototype combinations of atorvastatin and gemcabene after a single oral dose to male dogs; type: in vivo, male purebred beagle dogs; conditions: 150 mg gemcabene IR, composite data from all animals
[2] = background statement, cited from earlier work

For `CC(C)(CCCCOCCCCC(C)(C)C(=O)O)C(=O)O` [gemcabene, 6,6′-oxybis(2,2-dimethylhexanoic acid)], the “gemcabene pharmacokinetic profile in combination with atorvastatin prototype versus administered alone” value [1] is given as “essentially the same”, the “completeness of intestinal absorption in absence or presence of food” value [2] is given as “essentially unchanged” and the “effect on the pharmacokinetics of simvastatin and atorvastatin in vivo” value [2] is given as “not to significantly affect”. For the same compound, the “absorption in the intestines” value ([2]; oral) was “almost complete absorption”.
